Read-outs that look alike come from different tables or passages of the source.

The target of assay [1] is T1, HCV NS3/4A protease complex, BMS strain (UniProt P27958, C1454S/C1711G, species not given).
T1 construct: other: HCV NS3/4A enzyme assay; class symbols; numeric values; fused on or other part: three-lysine solubilising tail at the C-terminus of NS4A; purified on Ni-NTA from the pET21b vector (His tag implied)
Nature of the assay: FRET peptide assay to monitor HCV NS3/4A proteolytic activity (BMS strain). Type of assay: biochemical, HCV genotype 1a. Conditions: read-out: IC50 Range, HCV NS3/4A enzyme assay. An outline of the steps: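 Recombinant HCV NS3/4A protease complex (BMS strain, genotype 1a), 2-3 nM final (300 pM with 50 μg/ml BSA for very potent compounds), incubated with RET S1 EDANS/DABCYL depsipeptide substrate at 2 μM final. Buffer: 50 mM HEPES pH 7.5, 0.15 M NaCl, 0.1% Triton, 15% glycerol, 10 mM βME. Cleavage followed in real time by fluorescence.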

Assay [2] has as its system HCV replicon in HUH-7 cells. Nature of the assay: HCV replicon FRET assay. Type of assay: cell-based, HCV strain 1b. Conditions: Hepatitis C virus. (In general: Replicon systems follow genome replication, usually without infectious particles.)
Where [3] appears, read: Huh-7, HCV replicon cell assay, numeric values, read-out: EC50 Range.

On to `C=C[C@@H]1C[C@]1(NC(=O)[C@@H]1C[C@@H](Oc2ncc(OC)c3ccc(Cl)cc23)CN1C(=O)[C@@H](Nc1nc(-c2ccc(F)cc2)cs1)C(C)(C)C)C(=O)NS(=O)(=O)C1CC1` [Example 32], for which the IC50 (as a rule, the concentration that gives 50% inhibition) in assay [1] (class symbols) was 1 to 20 nM. For the same compound, the EC50 – broadly, the concentration needed to bring the measured effect to its halfway point – in assay [2] (Huh-7, read-out: EC50 Range) lay within 1 to 50 nM.
In the case of `C=C[C@@H]1C[C@]1(NC(=O)[C@@H]1C[C@@H](Oc2ncc(OC)c3ccc(Cl)cc23)CN1C(=O)C(Nc1ccc(-c2ccccc2)c(OC)c1)C(C)(C)C)C(=O)NS(=O)(=O)C1CC1` (single isomer, unassigned) [Example 18A], the IC50 in assay [1] (numeric values) is 54 nM. Further, in assay [2] (setting [3]), the EC50 stood at 78.1 nM.
Consider `C=C[C@@H]1C[C@]1(NC(=O)[C@@H]1C[C@@H](Oc2cc(-c3ccccc3)nc3cc(OC)ccc23)CN1C(=O)[C@@H](Nc1nc(-c2ccccc2OC)cs1)C(C)(C)C)C(=O)NS(=O)(=O)C1CC1` [Example 2], for which, in assay [1] (class symbols), the IC50 was 1 to 20 nM. In addition, in assay [2] (Huh-7, read-out: EC50 Range), the EC50 fell in the range of 1 to 50 nM.
`C=C[C@@H]1C[C@]1(NC(=O)[C@@H]1C[C@@H](Oc2ncc(OC)c3ccc(Cl)cc23)CN1C(=O)[C@@H](Nc1nc(-c2ccc(Br)cc2)c(Br)s1)C(C)(C)C)C(=O)NS(=O)(=O)C1CC1` [Example 19]: the IC50 in assay [1] (class symbols) is 1 to 20 nM. In assay [2] (Huh-7, read-out: EC50 Range), the EC50 lay in the range of 1 to 50 nM.
Taken in the same sequence, the figures for `C=C[C@@H]1C[C@]1(NC(=O)[C@@H]1C[C@@H](Oc2ncc(OC)c3ccc(Cl)cc23)CN1C(=O)[C@@H](Nc1nc(-c2cc(Cl)c(C)cc2OC)cs1)C(C)(C)C)C(=O)NS(=O)(=O)C1CC1` [Example 59] were 1 to 20 nM and 1 to 50 nM.
In the case of `C=C[C@@H]1C[C@]1(NC(=O)[C@@H]1C[C@@H](Oc2cc(-c3ccccc3)nc3cc(OC)ccc23)CN1C(=O)[C@@H](Nc1nc(-c2ccc(F)cc2)cs1)C(C)(C)C)C(=O)NS(=O)(=O)C1CC1` [Example 5], in assay [1] (class symbols), the IC50 is 1 to 20 nM. For the same compound, the EC50 in assay [2] (Huh-7, read-out: EC50 Range) is 1 to 50 nM.
On to `C=C[C@@H]1C[C@]1(NC(=O)[C@@H]1C[C@@H](Oc2ncc(OC)c3ccc(Cl)cc23)CN1C(=O)[C@@H](Nc1nc(-c2c(OC)cccc2OC)cs1)C(C)(C)C)C(=O)NS(=O)(=O)C1CC1` [Example 58], for which the IC50 in assay [1] (class symbols) lay within 1 to 20 nM. The EC50 in assay [2] (Huh-7, read-out: EC50 Range) was 1 to 50 nM.
In the same order, the values of `C=C[C@@H]1C[C@]1(NC(=O)[C@@H]1C[C@@H](Oc2ncc(OC)c3ccc(Cl)cc23)CN1C(=O)[C@@H](Nc1nc(-c2ccc(Cl)c(Cl)c2)cs1)C(C)(C)C)C(=O)NS(=O)(=O)C1CC1` [Example 29] are 1 to 20 nM and 1 to 50 nM.
Take `COc1cnc(O[C@@H]2C[C@@H](C(=O)N[C@]3(C(=O)NS(=O)(=O)C4CC4)C[C@H]3CC(F)F)N(C(=O)[C@@H](Nc3nc(-c4cc(-c5ccc(Cl)cc5)no4)cs3)C(C)(C)C)C2)c2cc(Cl)ccc12` [Example 98]: the IC50 in assay [1] (class symbols) was in the range of 1 to 20 nM. For the same compound, the EC50 in assay [2] (Huh-7, read-out: EC50 Range) was 1 to 50 nM.
With `C=C[C@@H]1C[C@]1(NC(=O)[C@@H]1C[C@@H](Oc2ncc(OC)c3ccc(Cl)cc23)CN1C(=O)[C@@H](Nc1nc(-c2c(Cl)cccc2Cl)cs1)C(C)(C)C)C(=O)NS(=O)(=O)C1CC1` [Example 57], the IC50 in assay [1] (class symbols) lay in the range of 1 to 20 nM. The EC50 in assay [2] (Huh-7, read-out: EC50 Range) lay within 1 to 50 nM.
Regarding `C=C[C@@H]1C[C@]1(NC(=O)[C@@H]1C[C@@H](Oc2ncc(OC)c3ccc(Cl)cc23)CN1C(=O)C(C)Nc1nnnn1-c1ccccc1)C(=O)NS(=O)(=O)C1CC1` (some centres unmarked) [Example 100], the IC50 in assay [1] (numeric values) turned out to be 795 nM. In assay [2] (setting [3]), the EC50 was 334 nM.
As to `C=C[C@@H]1C[C@]1(NC(=O)[C@@H]1C[C@@H](Oc2ncc(OC)c3ccc(Cl)cc23)CN1C(=O)[C@@H](Nc1nc(-c2ccc(C)cc2)cs1)C(C)(C)C)C(=O)NS(=O)(=O)C1CC1` [Example 23], the IC50 in assay [1] (class symbols) was 20 to 200 nM. Moreover, the EC50 in assay [2] (Huh-7, read-out: EC50 Range) is 1 to 50 nM.
In the same order, the values of `C=C[C@@H]1C[C@]1(NC(=O)[C@@H]1C[C@@H](Oc2ncc(OC)c3ccc(Cl)cc23)CN1C(=O)[C@@H](Nc1nc(-c2cccc(Cl)c2)cs1)C(C)(C)C)C(=O)NS(=O)(=O)C1CC1` [Example 48] are 1 to 20 nM and 1 to 50 nM.
On to `C=C[C@@H]1C[C@]1(NC(=O)[C@@H]1C[C@@H](Oc2ncc(OC)c3ccc(Cl)cc23)CN1C(=O)[C@@H](Nc1nc(-c2cccc(F)c2)cs1)C(C)(C)C)C(=O)NS(=O)(=O)C1CC1` [Example 43], for which the IC50 in assay [1] (class symbols) was 1 to 20 nM. Also, in assay [2] (Huh-7, read-out: EC50 Range), the EC50 fell in the range of 1 to 50 nM.
In the same order, the values of `C=C[C@@H]1C[C@]1(NC(=O)[C@@H]1C[C@@H](Oc2ncc(OC)c3ccc(Cl)cc23)CN1C(=O)[C@@H](Nc1nc(-c2ccccc2Cl)cs1)C(C)(C)C)C(=O)NS(=O)(=O)C1CC1` [Example 49] are 1 to 20 nM and 1 to 50 nM.
Regarding `C=C[C@@H]1C[C@]1(NC(=O)[C@@H]1C[C@@H](Oc2ncc(OC)c3ccc(Cl)cc23)CN1C(=O)[C@@H](Nc1nc(-c2ccccc2)cs1)C(C)(C)C)C(=O)NS(=O)(=O)C1CC1` [Example 20], the IC50 in assay [1] (numeric values) was determined as 3 nM. Further, in assay [2] (setting [3]), the EC50 is 3.9 nM.

Source of the values: patent US8163921B2, “Hepatitis C virus inhibitors” (Bristol-Myers Squibb Company, priority 2008, dated 2012).
